Converted amounts (≈) assume the structure as drawn.
What was measured:
physchem = assay type: physicochemical; conditions: for logD: pH 7.4
Description: (§1) C = (CD(t) × VD) + (CA(t) × VA )
(§2) % Mass Retention = 1 − (CD(t) × VD) + (CA(t) × VA)
(§3) A = Filter Area, VD = Donor Well Volume, VA = Acceptor Well Volume, t = incubation time (secs), CA(t) = Acceptor concentration at time t, CD(t) =Donor concentration at time t, C0 = Initial Donor concentration.
(§4) No Permeability is reported for compounds where % Mass Retention exceeds 50%.
(§5) ADME determinations for compounds in Suppl. Table 2 (Data kindly supplied by […]
(§6) The chemicals used in the assay were supplied by Sigma Aldrich. Briefly, 30 µL of a 20 mM stock solution of the compound to test was added to a vial containing 1. 5 mL of pH 7.4 phosphate buffer saturated octanol and 1.5 mL of octanol saturated pH 7.4 phosphate buffer. The vial was then shaken on a reciprocating shaker at 125 rpm for 40 min.
(§7) Following centrifugation to ensure phase separation, the concentration of the compound in both the octanol and buffer phases was measured by LC -UV. The Log D was then calculated as the Log of ratio of the concentration of compound in the octanol phase to that in the […]
(§8) 1 mL of buffer was added to 1.0 mg of compound and then incubated for 24 hr (Bioshake iQ, 650 rpm, 25 °C). Following filtration under positive pressure, the concentration of compound in solution was assessed by LC -UV in comparison to the response for a kno wn […]
(§9) A known concentration of drug in plasma (20 µM) was dialysed against phosphate buffer for 18 hr at 37 °C. The concentration of compound in the protein-containing and protein-free sides of the dialysis plate were determined by LC-MS/MS. The methodology uses either 100% plasma or plasma diluted with phosphate buffer. The routine operation of the assay employed 10% plasma diluted with phosphate buffer to enable the detection of highly bound compounds. Results were corrected to reflect the result if diluted plasma was […]
(§10) Briefly, monolayer integrity was measured before the assay was initiated measuring the transepithelial electrical resistance values (Ω). Compound was added to either apical (A) or basolateral (B) chamber at a final concentration of 10 µM and after 2 hr incubation at 37 °C, an aliquot from the opposite side of the monolayer was removed and quantified by LC-MS/MS. The apparent permeability (P app) was calculated using Equation 6 :
(§11) Papp [cm.s-1] = (V/(A.C i)) × (Cf/T) Eq.6
(§12) Where V = volume of recipient chamber (mL), A = surface area of membrane insert (cm2), Ci = initial concentration of compound (µM), Cf = final concentration of compound (µM), T = assay time (s). Efflux ratio = Papp B to A / Papp A to B.

in vitro [1] = assay type: in vitro ADME; conditions: plasma
Description: as §1, §2, §3, §4, §5, §6, §7, §8
A known concentration of drug in plasma (20 µM) was dialysed against phosphate buffer for 18 hr at 37 °C. The concentration of compound in the protein-containing and protein-free sides of the dialysis plate were determined by LC-MS/MS. The methodology uses either 100% plasma or plasma diluted with phosphate buffer. […]
as §10, with “: […]” for “:”

in vitro [2] = assay type: in vitro ADME, canine; conditions: dog, MDCK
Description: as §1, §2, §3, §4, §5, §6, §7, §8, §9, §10, §11, §12

[3] = assay type: in vitro ADME; conditions: human, microsomes, 1 µM
Description: Data analysis was performed using Excel (Microsoft, USA).
Human liver microsomes were commercially obtained (Invitrogen, USA). All microsomes were stored at -80 °C. Liver microsomal stability studies were performed manually using the substrate depletion approach, drug was incubated at 37 °C with human liver microsomes (0.5 mg.mL-1) at a final substrate concentration of 1 µM. Aliquots were removed from the incubation at 0, 5, 15, 30 and 45 min and the reaction was terminated by adding to ice-cold organic solvent. Compound concentrations were determined by LC-MS/MS analysis. The natural log of the percentage of compound remaining was plotted against each time point and the slope determined. The half-life (t1/2) and CLint were calculated using Equations 1 and 2, respectively.
CLint (µL.min-1.mg-1) = (LN(2)/t1/2(min))*1000/microsomal protein (mg.mL-1)a Eq. 2 a or cell density (106 cells.mL-1) or P450 concentration (pmol.mL-1)
Percentage liver blood flow (%LBF) was determined by dividing Cl by liver blood flow (20.7 mL/min/kg). Data analysis was performed using Excel (Microsoft, USA).

MptpB = MptpB (Mycobacterium tuberculosis, UniProt I6WXK4); assay: biochemical; set-up: species or system M. tuberculosis
[4] = Pharmacokinetic evaluation in guinea pigs; assay type: in vivo; conditions: guinea pig; for AUCinf / Cmax: in vivo, po; for t1/2: oral, dose mg/kg: 13 8, 5 5, 8 3.5, 9 5
Description: Guinea pig males (Durkin Hartley) were used to evaluate the pharmacokinetics and tissue distribution of compounds. The route of administration was either intraperitoneal (ip) or oral (po) with dosage varying from 3.5 to 8 mg kg^–1 (op) and 2.5–4 mg kg^–1 (ip). In each case 4 samples were collected per time point at 0.1, 0.5, 2, 4, and 8 h post dose for ip and 0.25, 0.5, 2, 4, and 8 h post dose for po. Compounds were prepared in 10% DMSO, 5% Cremaphor, and 85% physiological saline for IP administration or 0.5% (v/v) Tween 80, 99.5% (v/v) 0.5% methylcellulose for oral administration. Tissue samples (n = 4) from lung, liver, and kidney were collected at the end of the study and snap frozen prior to bioanalysis.

M. tuberculosis H37Rv = assay: Acute guinea pig model of TB infection; assay type: in vivo; conditions: 28 days of treatment, oral daily, 13 100 mg/kg, RIF 50 mg/kg
M. tuberculosis = assay type: in vivo, guinea pig
[5] = chronic model, 28 days of treatment from day 28, oral daily, 13 100 mg/kg, RIF 50 mg/kg

Sequence of MptpB (I6WXK4 whole entry, looked up): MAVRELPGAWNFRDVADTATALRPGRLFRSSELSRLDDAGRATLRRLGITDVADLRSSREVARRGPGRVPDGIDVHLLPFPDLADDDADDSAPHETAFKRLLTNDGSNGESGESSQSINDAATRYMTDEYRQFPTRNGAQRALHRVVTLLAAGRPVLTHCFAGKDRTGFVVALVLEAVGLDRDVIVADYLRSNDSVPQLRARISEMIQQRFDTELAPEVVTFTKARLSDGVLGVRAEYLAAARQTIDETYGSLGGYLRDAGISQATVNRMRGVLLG

Q: For `O=C(O)c1noc(-c2ccccc2)c1-c1cccc(-c2ccc(O)c(Cl)c2)c1` [Compound 10, 4-(3′-Chloro-4′-hydroxy-3-biphenyl)-5-phenylisoxazole-3-carboxylic Acid], which solubility at 24 h (physchem) is on record?
A: The solubility at 24 h was greater than 1250 µg/mL.

Q: What about the logD (physchem) of the same compound?
A: The logD was 1.3.

Q: What about the fraction unbound at 18 h, 20 µM (in vitro [1]) of the same compound?
A: Its fraction unbound at 18 h, 20 µM is 0.001.

Q: What about the Papp at 2 h, 10 µM (in vitro [2]) of the same compound?
A: The Papp at 2 h, 10 µM was 3.3 ×10⁻⁶ cm/s.

Q: And the efflux ratio at 2 h, 10 µM (in vitro [2])?
A: Its efflux ratio at 2 h, 10 µM is 0.8.

Q: What about the “HLM CLint (% LBF)” value [3] of the same compound?
A: Its value is 33 % LBF.

Q: What does the source list for `O=C(O)c1cc(-c2ccccc2)on1` [Compound 1, 5-Phenylisoxazole-3-carboxylic Acid]?
A: IC50 (MptpB; IC50 (molecular formula strings csv)): > 500 µM; IC50 (MptpB; IC50 MptpB): > 500 µM

Q: Which AUCinf [4] does the source give for `Cc1cc(-c2cccc(-c3c(C(=O)O)noc3-c3ccccc3)c2)cc(C)c1O` [Compound 9, 4-(3′,5′-Dimethyl-4′-hydroxy-3-biphenyl)-5-phenylisoxazole-3-carboxylic Acid] here?
A: Its AUCinf is “BLQ”.

Q: What about the Cmax [4] of the same compound?
A: The Cmax was “BLQ”.

Q: What about the t1/2 [4] of the same compound?
A: Its t1/2 is “BLQ”.

Q: And the solubility at 24 h (physchem)?
A: The solubility at 24 h was greater than 1250 µg/mL.

Q: What about the logD (physchem) of the same compound?
A: Its logD is 1.37.

Q: And the fraction unbound at 18 h, 20 µM (in vitro [1])?
A: The fraction unbound at 18 h, 20 µM was 0.001.

Q: What about the Papp at 2 h, 10 µM (in vitro [2]) of the same compound?
A: The Papp at 2 h, 10 µM was 5.8 ×10⁻⁶ cm/s.

Q: What about the “HLM CLint (% LBF)” value [3] of the same compound?
A: The value was 36.4 % LBF.

Q: For `O=C(O)c1noc(-c2ccccc2)c1-c1cccc(-c2cc(Cl)cc(Cl)c2)c1` [Compound 8, 4-(3′,5′-Dichoro-3-biphenyl)-5-phenylisoxazole-3-carboxylic Acid], which AUCinf [4] is on record?
A: Its AUCinf is “BLQ”.

Q: And the Cmax [4]?
A: The Cmax was “BLQ”.

Q: What about the t1/2 [4] of the same compound?
A: The t1/2 was “BLQ”.

Q: For `CO[C@H]1/C=C/O[C@@]2(C)Oc3c(C)c(O)c4c(O)c(c(/C=N/N5CCN(C)CC5)c(O)c4c3C2=O)NC(=O)/C(C)=C\C=C\[C@H](C)[C@H](O)[C@@H](C)[C@@H](O)[C@@H](C)[C@H](OC(C)=O)[C@@H]1C` [RIF, rifampicin, reference compound], which “Lungs infection burden, average” value (M. tuberculosis H37Rv) is on record?
A: The value was “BLQ”.

Q: And the “Spleen infection burden, average” value (M. tuberculosis H37Rv)?
A: Its value is “BLQ”.

Q: What about the “Lungs infection burden, average” value (M. tuberculosis; [5]) of the same compound?
A: The value was 3.7 log CFU.

Q: What about the “Lungs log reduction relative to vehicle” value (M. tuberculosis; [5]) of the same compound?
A: Its value is 2.0 log.

Q: And the “Spleen infection burden, average” value (M. tuberculosis; [5])?
A: Its value is “BLQ”.

Q: What about the “Spleen log reduction relative to vehicle” value (M. tuberculosis; [5]) of the same compound?
A: The value was greater than 5.0 log.

Q: What about the “Lungs weight % change relative to Vehicle” value (M. tuberculosis; guinea pig, in vivo) of the same compound?
A: Its value is -29%.

Q: And the “Lungs weight, average” value (M. tuberculosis; guinea pig, in vivo)?
A: The value was 3.8 g.

Q: What about the “Spleen weight % change relative to Vehicle” value (M. tuberculosis; guinea pig, in vivo) of the same compound?
A: Its value is -73%.

Q: And the “Spleen weight, average” value (M. tuberculosis; guinea pig, in vivo)?
A: Its value is 0.7 g.

Q: Which AUCinf [4] does the source give for `O=C(O)c1noc(-c2ccccc2)c1-c1cccc(-c2cc(Cl)c(O)c(Cl)c2)c1` [Compound 5, 4-(3′,5′-Dichloro-4′-hydroxy-3-biphenyl)-5-phenylisoxazole-3-carboxylic Acid] here?
A: Its AUCinf is “BLQ”.

Q: And the Cmax [4]?
A: Its Cmax is “BLQ”.

Q: What about the t1/2 [4] of the same compound?
A: The t1/2 was “BLQ”.

Q: And the solubility at 24 h (physchem)?
A: Its solubility at 24 h is 1180 µg/mL (≈ 2.78 mM).

Q: And the logD (physchem)?
A: Its logD is 0.84.

Q: What about the Papp at 2 h, 10 µM (in vitro [2]) of the same compound?
A: The Papp at 2 h, 10 µM was 0.8 ×10⁻⁶ cm/s.

Q: And the “HLM CLint (% LBF)” value [3]?
A: Its value is 31 % LBF.

Q: With `O=C(O)c1noc(-c2ccccc2)c1-c1cccc(-c2ccc(O)c(F)c2)c1` [Compound 11, 4-(3′-Fluoro-4′-hydroxy-3-biphenyl)-5-phenylisoxazole-3-carboxylic Acid] as the compound, how does the solubility at 24 h (physchem) read?
A: The solubility at 24 h was greater than 1250 µg/mL.

Q: What about the logD (physchem) of the same compound?
A: The logD was 0.67.

Q: And the fraction unbound at 18 h, 20 µM (in vitro [1])?
A: The fraction unbound at 18 h, 20 µM was 0.002.

Q: What about the Papp at 2 h, 10 µM (in vitro [2]) of the same compound?
A: The Papp at 2 h, 10 µM was 2.7 ×10⁻⁶ cm/s.

Q: And the efflux ratio at 2 h, 10 µM (in vitro [2])?
A: The efflux ratio at 2 h, 10 µM was 0.7.

Q: And the “HLM CLint (% LBF)” value [3]?
A: Its value is 47.7 % LBF.

— paper PMC6459586, “Structure-Based Design of MptpB Inhibitors That Reduce Multidrug-Resistant Mycobacterium tuberculosis Survival and Infection Burden in Vivo” (Journal of Medicinal Chemistry, 2018)
